These results are taken from PMC8296708, “The pan HDAC inhibitor Givinostat improves muscle function and histological parameters in two Duchenne muscular dystrophy murine models expressing different haplotypes of the LTBP4 gene” (Skeletal Muscle, 2021).

Assay [1] relates to mdx mice. Briefly: Myofiber cross-sectional area (CSA) in mdx mice. The class given is in vivo, mouse (C57BL/10ScSn-Dmd^mdx/J). The source says:
Tibialis anterior (TA), gastrocnemius (GAS), DIA, and heart were collected from mice maintained under isoflurane anesthesia and sacrificed by cervical dislocation. These muscles were collected from C57BL/10J wt and mdx (5 mice/group) at the end of treatments and from DBA/2J wt and D2.B10 mice (5 mice/group) at two different time points to be examined by a pathologist (for more details see Additional Table 1). Due to the results obtained by the functional tests, muscles from only some treatment groups were analyzed in both DMD models (see Additional Table 1). All the collected muscles were fixed in 10% buffered formalin solution (Bio-optica, Milan, Italy) at + 4 °C for at least 48 h. After fixation, muscular samples were transversely trimmed, caged, and paraffin embedded overnight with an Automated Vacuum Tissue Processor Floor (ETP, Histo-Line Laboratories) and included in paraffin blocks. Serial transverse cross-sections (4 μm thick) were cut with a microtome (Leica RM 2255), collected onto uncoated glass slides, and stained using a standard protocol for hematoxylin and eosin (Mayer hematoxylin & Aqueous G Eosin 1%, Bio-Optica) and Sirius Red staining (Direct Red 80, Sigma-Aldrich). For the image analysis and quantitation, hematoxylin and eosin- and Sirius Red-stained slides were examined with an Olympus BX51 light microscope. From each sample, 1 to 3 random microphotographs at the magnification of × 4 and × 10 (TA, GAS and heart) or × 20 (DIA) were collected using Image-Pro Plus system. The digital images were processed by a pathologist using ImageJ software (U.S. National Institutes of Health, Bethesda, MD, USA). To quantify CSA and centralized nuclei (%) on hematoxylin and eosin-stained sections, one hundred myofibers were manually measured for each muscle/mouse using a tablet pen (Wacom Intruos) and analyzed by the ImageJ software after a linear calibration of 150 μm. The fibrotic area, corresponding to the area stained in red, was compared to the total area of the tissue section, and the results were expressed as percentage fibrosis. The % of fibrosis of muscles in the different treatment groups was expressed by averaging the three values obtained from each muscle.
The deciles of the CSA of the animals treated with Givinostat at the different doses were plotted against the corresponding deciles of the vehicle-treated mice and a linear regression analysis was performed on natural [CSAtreated = b CSAcontrol + a] and log_transformed data [log(CSAtreated) = log(a) + b log(CSAcontrol)]. […] In case of untransformed data, this means that the effect of Givinostat treatment is additive and any decile of the CSAtreatment distribution may be derived from the control data summing up a constant quantity (S) to each fiber AREA of the control group (CSAtreated = CSAcontrol + S). In case of log_transformed data, the effect of Givinostat has to be considered as a multiplicative factor on any generic fiber of the muscle under evaluation, whose size, after the treatment, results K times larger in comparison to the control group value (CSAtreated […] = K × CSAcontrol, with K = 10^a). The S or K parameter values were then determined through an iterative estimation procedure, based on sum of squares (SSQ) minimization, directly comparing the CSA distribution observed in treated animals with that obtained summing up the S value or multiplying by K the CSA values of the control group.

Assay [2] has as its system murine models of diastolic dysfunction. Set-up: method as in PMID 29437146. The conditions noted are these: drug admixed to the diet; cited from earlier work.

`CCN(CC)Cc1ccc2cc(COC(=O)Nc3ccc(C(=O)NO)cc3)ccc2c1` [Givinostat]: the “DIA fiber CSA, peak value” in assay [1] (37.5 mg/kg (same as vehicle)) was determined as 550 μm^2. Also, the “GAS fiber CSA, peak of distribution” value in assay [1] (37.5 mg/kg, after 105 days (vehicle peak 500)) was 1100 μm^2. For the same compound, the “K, multiplicative factor on GAS fiber CSA vs vehicle” value in assay [1] (37.5 mg/kg, multiplicative model) is 1.72. Besides, the “TA fiber CSA, peak value” in assay [1] (10 and 37.5 mg/kg (vehicle 700)) was 900 μm^2. The “S, shift effect parameter on TA CSA vs vehicle” value in assay [1] (additive model) is recorded as 140 μm^2. Moreover, in assay [2], the “Efficacy in two murine models of diastolic dysfunction with preserved ejection fraction” value was “highly efficacious”.
